What was measured:
senescent cells = assay: Viability of senescent cells (CellTiter-Glo), Example 17, Table 13; conditions: Homo sapiens, read-out: Survival (%)
Protocol: Cells induced to undergo senescence by doxorubicin treatment were treated with test compound at designated concentrations and measured using the CellTiter-Glo Luminescent Cell Viability Assay (Promega).

[1] = tested on: carbon tetrachloride-induced liver fibrosis mice; assay: Carbon tetrachloride-induced liver fibrosis mice, Example 31, Table 57; type: in vivo, mouse; conditions: CCl4-induced liver fibrosis mice, untreated = 100%
Protocol: (§1) The control group was administered only the solution in the same volume. After the end of drug administration, the method described in each example below was performed. Liver, kidney, skin, knee joint, heart, and femur tissues were collected from mice in which natural aging was induced in the same manner as in Examples 7-2 and 7-6 of WO2023-085787 A1. Lung tissues were collected from mice in which pulmonary fibrosis was induced using the same method as in Example 24-1. Liver tissues were collected from mice in which hepatic fibrosis was induced using the same method as in Example 26, and total RNA was extracted. qRT-PCR was performed and analyzed using the synthesized cDNA. […] The mRNA amounts of p16, MMP3, and IL6 after natural aging was induced were calculated as 100% and compared with the mRNA amounts of p16, MMP3, and IL6 after treatment with the test compound. In addition, an open field test for the analysis of aging-related frailty, agtr1a mRNA analysis for kidney damage and disease evaluation, col1a1 and SDF1 mRNA analysis for skin aging evaluation such as wrinkles/loss of elasticity/hyperpigmentation, col2a1 mRNA analysis for evaluating joint aging such as osteoarthritis, sur2a mRNA analysis for evaluating cardiac aging such as decreased cardiac load resistance, ctsk mRNA analysis for evaluating bone diseases due to aging such as osteoporosis, muscle tissue weight for analyzing sarcopenia, fat tissue weight for analyzing lipoatrophy, and cataract incidence analysis were performed in mice. For cataract incidence analysis, the drug was administered twice a week under the conditions specified above, and biweekly examinations were conducted until death.

[2] = tested on: bleomycin-induced pulmonary fibrosis mice; assay: Bleomycin-induced pulmonary fibrosis mice, Example 31, Table 56; type: in vivo, mouse; conditions: untreated = 100%
Protocol: as §1
The table below quantitatively presents the evaluation results for each item in mice with bleomycin-induced pulmonary fibrosis, untreated and treated with the test compound.

senescent A549 cells = assay: Viability of senescent A549 cells (CellTiter-Glo), Example 18, Table 15; conditions: Homo sapiens, A549, read-out: Survival (%)
Protocol: Senescence-induced cancer cells treated with doxorubicin were treated with the test compound at designated concentrations, and cell viability was measured using the CellTiter-Glo Luminescent Cell Viability Assay (Promega).

naturally aged mice = assay: Anti-aging evaluation in naturally aged mice, Example 31, Table 55; type: in vivo, mouse; conditions: for Femur Ctsk mRNA / Kidney Agtr1a mRNA / Liver IL6 mRNA / Liver MMP3 mRNA / Liver p16 mRNA / Open Field Test Time in Center: untreated = 100%; for Heart Sur2a mRNA / Joint Col2a1 mRNA / Skin Col1a1 mRNA / Skin SDF1 mRNA: untreated = 1.0; for Muscle Mass: untreated 0.64 g; for Fat Mass: untreated 0.82 g; for Cataract incidence: untreated 83%;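 on all read-outs here: Vehicle-dosed control mice received solution alone at matching volume, values compare test-compound-treated aged mice against that control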

| SMILES | viability at 1.1 µM (senescent cells) [%] | viability at 10 µM (senescent cells) [%] | viability at 30 µM (senescent cells) [%] | viability at 1.1 µM (senescent A549 cells) [%] | viability at 10 µM (senescent A549 cells) [%] | viability at 30 µM (senescent A549 cells) [%] | other results |
| --- | --- | --- | --- | --- | --- | --- | --- |
| CN(NC(=O)CC(=O)NN(C)C(=S)c1ccccc1)C(=S)c1ccccc1 [LX-6501, Elesclomol] | 94.5 | 71.5 | 7.8 | 97 | 62.4 | 13 | Liver p16 mRNA [1]: 34 (±3.0) %; Col1a1 mRNA [1]: 75 (±2.5) %; Lung p16 mRNA [2]: 68 (±4.4) %; Col1a1 mRNA [2]: 75 (±5.3) %; Femur Ctsk mRNA (naturally aged mice): 64%; Heart Sur2a mRNA (naturally aged mice): 1.8 fold; Joint Col2a1 mRNA (naturally aged mice): 2.7 fold; Kidney Agtr1a mRNA (naturally aged mice): 49%; Liver IL6 mRNA (naturally aged mice): 46%; Liver MMP3 mRNA (naturally aged mice): 56%; Liver p16 mRNA (naturally aged mice): 38%; Open Field Test Time in Center (naturally aged mice): 214%; Skin Col1a1 mRNA (naturally aged mice): 1.9 Fold; Skin SDF1 mRNA (naturally aged mice): 2.2 fold; Muscle Mass (naturally aged mice): 0.71 g; Fat Mass (naturally aged mice): 0.89 g; Cataract incidence (naturally aged mice): 48% |
| CC12CCN(CC1)C(CN(C1CC1)S(C)(=O)=O)C2=O (stereo not shown) [LX-5707] | 103 | 27.3 |  | 81 | 37.3 | 4.3 | Liver p16 mRNA [1]: 64 (±8.3) %; Col1a1 mRNA [1]: 72 (±9.6) %; Lung p16 mRNA [2]: 72 (±8.9) %; Col1a1 mRNA [2]: 69 (±7.1) %; Femur Ctsk mRNA (naturally aged mice): 64%; Heart Sur2a mRNA (naturally aged mice): 2.3 fold; Joint Col2a1 mRNA (naturally aged mice): 2.0 fold; Kidney Agtr1a mRNA (naturally aged mice): 65%; Liver IL6 mRNA (naturally aged mice): 61%; Liver MMP3 mRNA (naturally aged mice): 63%; Liver p16 mRNA (naturally aged mice): 59%; Open Field Test Time in Center (naturally aged mice): 199%; Skin Col1a1 mRNA (naturally aged mice): 1.7 Fold; Skin SDF1 mRNA (naturally aged mice): 1.6 fold; Muscle Mass (naturally aged mice): 0.70 g; Fat Mass (naturally aged mice): 0.90 g; Cataract incidence (naturally aged mice): 70% |
| CN[C@H](CC(C)C)C(=O)N[C@H]1C(=O)N[C@@H](CC(N)=O)C(=O)N[C@H]2C(=O)N[C@H]3C(=O)N[C@H](C(=O)N[C@H](C(=O)O)c4cc(O)cc(O)c4-c4cc3ccc4O)[C@H](O)c3ccc(c(Cl)c3)Oc3cc2cc(c3O[C@@H]2O[C@H](CO)[C@@H](O)[C@H](O)[C@H]2O[C@H]2C[C@](C)(N)[C@H](O)[C@H](C)O2)Oc2ccc(cc2Cl)[C@H]1O [LX-5424, Vancomycin] | 106 | 62.5 | 10.5 | 98.9 | 74.3 | 21.8 | Liver p16 mRNA [1]: 79 (±5.6) %; Col1a1 mRNA [1]: 51 (±4.7) %; Lung p16 mRNA [2]: 70 (±3.5) %; Col1a1 mRNA [2]: 73 (±2.7) %; Femur Ctsk mRNA (naturally aged mice): 70%; Heart Sur2a mRNA (naturally aged mice): 2.3 fold; Joint Col2a1 mRNA (naturally aged mice): 1.5 fold; Kidney Agtr1a mRNA (naturally aged mice): 68%; Liver IL6 mRNA (naturally aged mice): 45%; Liver MMP3 mRNA (naturally aged mice): 59%; Liver p16 mRNA (naturally aged mice): 72%; Open Field Test Time in Center (naturally aged mice): 191%; Skin Col1a1 mRNA (naturally aged mice): 1.6 Fold; Skin SDF1 mRNA (naturally aged mice): 1.7 fold; Muscle Mass (naturally aged mice): 0.67 g; Fat Mass (naturally aged mice): 0.84 g; Cataract incidence (naturally aged mice): 76% |
| Cc1ncc([N+](=O)[O-])n1CCO [LX-9107, Metronidazole] | 106 | 87.3 | 26.2 | 95.6 | 77.8 | 5 |  |
| COc1ccc(C[C@@H](C)[C@@H](C)Cc2ccc(OC)c(OC)c2)cc1OC [LX-7122, Terameprocol] | 109 | 94.4 | 39.3 | 118 | 71.3 | 15.7 |  |
| CC[C@@H]1C(=O)N(C)c2cnc(Nc3ccc(C(=O)N[C@H]4CC[C@H](N5CCN(CC6CC6)CC5)CC4)cc3OC)nc2N1C(C)C [LX-6207, Volasertib] | 68.7 | 8.6 |  | 88.2 | 41 | 9.4 |  |
| C=C(C#N)CNc1c(OC)ccc2ccc(-c3ccc(S(C)(=O)=O)cn3)cc12 [LX-5906] | 97.2 | 30.7 | 0.4 | 98.7 | 41.5 | 5.9 |  |
| C[C@@]12C[C@@]3(O)O[C@@H](O1)[C@]1(COC(=O)c4ccccc4)[C@H]3C[C@@]12O[C@@H]1O[C@H](CO)[C@@H](O)[C@H](O)[C@H]1O [LX-6804, Paeoniflorin] | 87.5 | 28.5 |  | 78.8 | 40.8 | 8.4 |  |
| C=CC[C@@H]1/C=C(\C)C[C@H](C)C[C@H](OC)[C@H]2O[C@@](O)(C(=O)C(=O)N3CCCC[C@H]3C(=O)O[C@H](/C(C)=C/[C@@H]3CC[C@@H](O)[C@H](OC)C3)[C@H](C)[C@@H](O)CC1=O)[C@H](C)C[C@@H]2OC [LX-9314, Tacrolimus] | 84.7 | 69.2 | 35.3 | 92.9 | 57.1 | 14.7 |  |
| NS(=O)(=O)NCCNc1nonc1C(=NO)Nc1ccc(F)c(Br)c1 [LX-8804, Epacadostat] | 54.5 |  |  | 71.5 | 2.1 |  |  |
| Cc1cccc2c1NC(=O)[C@@H](NC(=O)[C@H](CCC(F)(F)F)[C@H](CCC(F)(F)F)C(N)=O)N=C2c1cccc(F)c1 [LX-6514] | 97.2 | 63.3 | 2.7 | 107 | 51.2 | 0.2 |  |
| CC(C)(C)OC(=O)NC1CCN(c2ccc(-c3cnc4[nH]cc(C(=O)C(=O)NCCc5ccccn5)c4c3)cn2)CC1 [LX-5341] | 99.1 | 48.5 | 3.5 | 94.6 | 55.4 | 13.7 |  |
| CC(C)(CCCCCC(O)CCCCCC(C)(C)C(=O)O)C(=O)O [LX-9602, Bempedoic acid] | 113 | 102 | 92.2 | 101 | 96.4 | 75.4 | viability at 90 µM (senescent cells): 11.1%; viability at 90 µM (senescent A549 cells): 3.8% |
| COc1ccccc1OCC(O)CN1CCN(CC(=O)Nc2c(C)cccc2C)CC1 (stereo not shown) [LX-9565, Ranolazine] | 78.9 | 52.3 | 6.1 | 97 | 67.3 | 34.1 | viability at 90 µM (senescent A549 cells): 3.6% |
| Cc1ccccc1CN1C(=O)C2=C(CCN(Cc3ccccc3)C2)N2CCN=C12 [LX-7261, Dordaviprone] | 63.7 |  |  | 52.4 |  |  |  |
| O=C1C2=C(CCN(Cc3ccccc3)C2)N2CCN=C2N1Cc1ccc(F)cc1F [LX-7262] | 52.8 |  |  | 69.5 |  |  |  |
